Molecules are shown by their SMILES. “Also recorded” adds a separate entry of the source. Where two headings read alike, the source gives them in different places.

The subject of data set [1] is chloroquine-sensitive D6 strain of Plasmodium falciparum. The data set can be described thus: In vitro antiplasmodial activity, non-radioactive (fluorescence-based) assay. The class given is cell-based. The note with it: for IC50: Plasmodium falciparum; for Antiplasmodial activity in words: D6 strain of Plasmodium falciparum. The protocol:
The pure compounds were assayed using a non-radioactive assay technique as described by […] al., 2004 [32] with modifications given in the literature.

Data set [2] can be described thus: MTT cytotoxicity assay, HepG2. The class given is cell-based. Particulars: human, HepG2 cells (liver cancer cell line). The protocol: (§1) A549, HepG2, and non-tumoral cells were all purchased from ATCC. Cells were cultured in RPMI 1640 medium supplemented with 10% fetal bovine serum and antibiotics penicillin (50 U/mL) and streptomycin (50 μg/mL; Invitrogen, Paisley, Scotland, UK). All cell cultures were incubated at 37 °C in a 5% humidified CO2 incubator. All tested compounds were dissolved in DMSO at a final concentration of 50 mmol/L and stored at −20 °C before use. Cytotoxicity was assessed by using the 3-(4,5-dimethylthiazol-2-yl)-2,5-diphenyltetrazolium bromide (MTT) (5.0 mg/mL) assay as previously described. Briefly, 4 × 10^3 cells per well were seeded in 96-well plates before drug treatments. After overnight culture, the cells were then exposed to different concentrations of selected compounds (0.039–100 μmol/L) for 72 h. Cells without drug treatment were used as the control. Subsequently, MTT (10 μL) solution was added to each well and incubated at 37 °C for 4 h followed by the addition of 100 μL solubilization buffer (10% SDS in 0.01 mol/L HCl) and overnight incubation. A570 nm was then determined in each well on the next day. The percentage of cell viability was calculated using the following formula: Cell viability (%) = Atreated/Acontrol × 100. Data were obtained from three independent experiments and the standard error was calculated.

The subject of data set [3] is two non-tumoral and two cancerous cell-lines (LO2, BEAS, A549, HepG2). As to the kind of experiment: MTT cytotoxicity, summary over the four cell-lines. Format: cell-based. The protocol:
as §1

Data set [4] is described as follows: MTT cytotoxicity, summary over the four cell-lines. The note with it: human, two non-tumoral and two cancerous cell-lines; read-out: Cytotoxicity IC50 against four cell-lines. Format: cell-based. The protocol:
as §1

Data set [5] in a line: MTT cytotoxicity assay, A549. Format: cell-based. The note with it: human, A549 cells (adenocarcinomic alveolar basal epithelial cells), cancer cell. The protocol:
as §1

The nature of data set [6]: MTT cytotoxicity assay, BEAS. The class given is cell-based. Particulars: human, non-tumoral cell. The protocol:
as §1

The nature of data set [7]: MTT cytotoxicity assay, LO2. Format: cell-based. The note with it: human, LO2 cells (immortal hepatic cell line), non-tumoral cell. The protocol:
as §1

[8] abbreviates: D6 strain, in vitro, read-out: Antiplasmodial activity against P. falciparum D6, IC50.

On to `CCN(CC)CCCC(C)Nc1ccnc2cc(Cl)ccc12` (stereo not drawn) [Chloroquine, reference compound], for which, in data set [1] (D6, read-out: Antiplasmodial activity against P. falciparum D6, IC50), the IC50 turned out to be 0.037 ± 0.003 µM.
Turning to `COc1cc(O)c2c(=O)cc(-c3ccccc3)oc2c1/C=C/C(C)(C)O` [Compound 1, (E)-5-hydroxy-8-(3-hydroxy-3-methylbut-1-en-1-yl)-7-methoxy-2-phenyl-4H-chromen-4-one], the IC50 at 72 h is over 100 µM in data set [2]; 21 to 100 µM in data set [4]; 76.1 ± 2.9 µM in data set [5]; 24.5 ± 2.7 µM in data set [6]; 21.7 ± 4.8 µM in data set [7]. This compound yielded a Selectivity index in data set [3] (cytotoxicity versus antiplasmodial activity (D6)) of over 12. Besides, the IC50 is over 21 µM in data set [3] (two non-tumoral and two cancerous cell-lines, read-out: Cytotoxicity IC50 against four cell-lines); 1.7 ± 0.1 µM in data set [1] (setting [8]). Besides, the “Antiplasmodial activity in words” value in data set [1] is given as “good activity; also recorded: the most active”.
As to `COc1cc(O)c2c(=O)cc(-c3ccccc3)oc2c1/C=C/C(C)=O` [Compound 2, (E)-5-hydroxy-7-methoxy-8-(3-oxobut-1-en-1-yl)-2-phenyl-4H-chromen-4-one], the IC50 at 72 h in data set [2], in data set [5], in data set [6] and in data set [7] was over 100 µM throughout.
As to `COc1cc(OC(C)=O)c(C2COC(C)(C)C2=O)c2oc(-c3ccccc3)cc(=O)c12` (stereo not drawn) [Compound 4, 8-(5,5-dimethyl-4-oxotetrahydrofuran-3-yl)-5-methoxy-4-oxo-2-phenyl-4H-chromen-7-yl acetate], the melting point is 210 to 214 °C. This compound also registered an IC50 at 72 h in data set [2] of over 100 µM. Also, the “Antiplasmodial activity in words” value in data set [1] is given as “low antiplasmodial activities”. Moreover, the IC50 in data set [1] (setting [8]) was found to be 14.8 ± 3.2 µM. The same compound showed an IC50 at 72 h in data set [5] of over 100 µM. The compound also displayed an IC50 at 72 h in data set [6] of over 100 µM. Moreover, the IC50 at 72 h in data set [7] is over 100 µM.
Regarding `COc1cc(OC)c2c(=O)cc(-c3ccccc3)oc2c1C1=COC(C)(C)C1=O` [Compound 9, tachrosin], the IC50 at 72 h in data set [2], in data set [5], in data set [6] and in data set [7] was over 100 µM each time. For the same compound, the “Antiplasmodial activity in words” value in data set [1] is “low antiplasmodial activities”. Also, in data set [1] (setting [8]), the IC50 came out at 27.1 ± 3.2 µM.

Values taken from article PMC6151588, “Four Prenylflavone Derivatives with Antiplasmodial Activities from the Stem of Tephrosia purpurea subsp. leptostachya” (Molecules : A Journal of Synthetic Chemistry and Natural …, 2017).
